Experimental data: PubChem BioAssay (NCI)
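Where inhibition never reached the appropriate level, the endpoint shown equals the highest concentration tested. Otherwise, values were interpolated linearly from a five-concentration, 48-hour dose response in 96-well plates. GI50: concentration for 50% inhibition of growth. TGI: concentration producing complete growth inhibition.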

Tests used:
Test in all cases: inhibition of tumour cell growth, NCI panel, 48 h
[1] = test system: MDA-MB-231 breast
[2] = test system: BT-549 breast
[3] = test system: SK-MEL-28 melanoma
[4] = test system: HT29 colon
[5] = test system: TK-10 renal
[6] = test system: HCC-2998 colon
[7] = test system: OVCAR-8 ovarian
[8] = test system: OVCAR-3 ovarian
[9] = test system: HCT-15 colon
[10] = test system: SW-620 colon
[11] = test system: KM12 colon
[12] = test system: HS 578T breast
[13] = test system: SNB-75 CNS
[14] = test system: PC-3 prostate
[15] = test system: K-562 leukemia
[16] = test system: HOP-62 NSCLC
[17] = test system: DU-145 prostate
[18] = test system: NCI-H522 lung
[19] = test system: LOX IMVI melanoma
[20] = test system: CCRF-CEM leukemia
[21] = test system: SK-MEL-5 melanoma
[22] = test system: COLO 205 colon
[23] = test system: SK-OV-3 ovarian
[24] = test system: NCI-H23 lung
[25] = test system: SF-268 CNS
[26] = test system: UO-31 renal
[27] = test system: MCF7 breast
[28] = test system: UACC-257 melanoma
[29] = test system: NCI/ADR-RES ovarian
[30] = test system: UACC-62 melanoma
[31] = test system: MALME-3M melanoma
[32] = test system: SNB-19 CNS
[33] = test system: T-47D breast
[34] = test system: A549 NSCLC
[35] = test system: MOLT-4 leukemia
[36] = test system: M14 melanoma
[37] = test system: SF-539 CNS
[38] = test system: RXF 393 renal
[39] = test system: SF-295 CNS
[40] = test system: U251 CNS
[41] = test system: OVCAR-4 ovarian
[42] = test system: NCI-H460 lung
[43] = test system: OVCAR-5 ovarian
[44] = test system: SK-MEL-2 melanoma
[45] = test system: EKVX NSCLC
[46] = test system: IGROV1 ovarian
[47] = test system: HOP-92 NSCLC
[48] = test system: MDA-MB-435
[49] = test system: CAKI-1 renal
[50] = test system: ACHN renal
[51] = test system: 786-0 renal
[52] = test system: SN12C renal
[53] = test system: HCT-116 colon
[54] = test system: HL-60(TB) leukemia
[55] = test system: RPMI-8226 leukemia
[56] = test system: SR leukemia

SMILES: COc1cc(-c2coc3c(OC)c(OC4OC(COC5OC(C)C(O)C(O)C5O)C(O)C(O)C4O)c(OC)c(O)c3c2=O)cc(C)c1O (configuration not stated)
- TGI [1]: > 100 µM
- TGI [2]: 45.4 µM
- TGI [3]: 34.4 µM
- TGI [4]: 43.5 µM
- TGI [5]: > 100 µM
- TGI [6]: 39.2 µM
- TGI [7]: > 100 µM
- TGI [8]: 47.2 µM
- TGI [9]: 40.9 µM
- TGI [10]: 30.9 µM
- TGI [11]: 29.3 µM
- TGI [12]: 62.1 µM
- TGI [13]: 69.6 µM
- TGI [14]: 74.1 µM
- TGI [15]: 34.6 µM
- TGI [16]: 81.9 µM
- TGI [17]: 52.7 µM
- TGI [18]: 34.7 µM
- TGI [19]: 45.3 µM
- TGI [20]: > 100 µM
- TGI [21]: 26.5 µM
- TGI [22]: 34.9 µM
- TGI [23]: 60.3 µM
- TGI [24]: 32.4 µM
- TGI [25]: 62.2 µM
- TGI [26]: 50.5 µM
- TGI [27]: 47.4 µM
- TGI [28]: 68.2 µM
- TGI [29]: 52.5 µM
- TGI [30]: 34.7 µM
- TGI [31]: 33.9 µM
- TGI [32]: 30.3 µM
- TGI [33]: 61.4 µM
- TGI [34]: > 100 µM
- TGI [35]: 19.4 µM
- TGI [36]: 33.1 µM
- TGI [37]: 39 µM
- TGI [38]: 32.5 µM
- TGI [39]: 38 µM
- TGI [40]: 32.9 µM
- TGI [41]: 69.5 µM
- TGI [42]: 82.6 µM
- TGI [43]: 45.5 µM
- TGI [44]: 59.9 µM
- TGI [45]: 38 µM
- TGI [46]: 53.1 µM
- TGI [47]: 65 µM
- TGI [48]: 75.2 µM
- TGI [49]: 38.9 µM
- TGI [50]: 52.9 µM

SMILES: Clc1ccc(Nc2nc3ccccc3c3occc23)cc1
- GI50 [1]: 9.1 µM
- TGI [1]: 24.7 µM
- GI50 [2]: 8.28 µM
- TGI [2]: 15.2 µM
- GI50 [3]: 6.39 µM
- TGI [3]: 14.4 µM
- GI50 [5]: 4.99 µM
- TGI [5]: 11 µM
- GI50 [51]: 8.33 µM
- TGI [51]: 15.1 µM
- GI50 [6]: 6.41 µM
- TGI [6]: 12.7 µM
- GI50 [52]: 10.9 µM
- TGI [52]: 22.6 µM
- GI50 [7]: 9.2 µM
- TGI [7]: 20.9 µM
- GI50 [8]: 5.92 µM
- TGI [8]: 12.1 µM
- GI50 [53]: 8.74 µM
- TGI [53]: 15.7 µM
- GI50 [54]: 24.4 µM
- TGI [54]: > 50 µM
- GI50 [9]: 11.2 µM
- TGI [9]: 34.4 µM
- GI50 [10]: 8.04 µM
- TGI [10]: 14.8 µM
- GI50 [11]: 6.46 µM
- TGI [11]: 13.8 µM
- GI50 [12]: 6.95 µM
- TGI [12]: 16.3 µM
- GI50 [14]: 7 µM
- TGI [14]: 13.5 µM
- GI50 [15]: 13.6 µM
- TGI [15]: > 50 µM
- GI50 [16]: 9.19 µM
- TGI [16]: 17.3 µM
- GI50 [17]: 7.01 µM
- TGI [17]: 13.5 µM
- GI50 [18]: 9.83 µM
- TGI [18]: 20.3 µM
- GI50 [19]: 5.49 µM
- TGI [19]: 14.3 µM
- GI50 [21]: 7.52 µM
- TGI [21]: 14.1 µM
- GI50 [22]: 6 µM
- TGI [22]: 13 µM
- GI50 [23]: 8.15 µM
- TGI [23]: 16 µM
- GI50 [24]: 8.02 µM
- TGI [24]: 14.9 µM
- GI50 [25]: 8.09 µM
- TGI [25]: 16.7 µM
- GI50 [26]: 7.91 µM
- TGI [26]: 22.6 µM
- GI50 [27]: 10.9 µM
- TGI [27]: > 50 µM
- GI50 [28]: 10.4 µM
- TGI [28]: 19.2 µM
- GI50 [29]: 8.7 µM
- TGI [29]: 15.6 µM
- GI50 [55]: 11.3 µM
- TGI [55]: 27.4 µM
- GI50 [30]: 8.1 µM
- TGI [30]: 18.3 µM
- GI50 [32]: 8.78 µM
- TGI [32]: 16.2 µM
- GI50 [33]: 1.52 µM
- TGI [33]: 11.3 µM
- GI50 [34]: 8.13 µM
- TGI [34]: 16.8 µM
- GI50 [36]: 8.46 µM
- TGI [36]: 16.9 µM
- GI50 [37]: 9.62 µM
- TGI [37]: 17.5 µM
- GI50 [38]: 8.4 µM
- TGI [38]: 16.9 µM
- GI50 [39]: 6.86 µM
- TGI [39]: 13.3 µM
- GI50 [40]: 8.66 µM
- TGI [40]: 16.2 µM
- GI50 [41]: 8.7 µM
- TGI [41]: 19.8 µM
- GI50 [42]: 13 µM
- TGI [42]: 35.2 µM
- GI50 [43]: 9.4 µM
- TGI [43]: 18.4 µM
- GI50 [44]: 9.53 µM
- TGI [44]: 21.7 µM
- GI50 [45]: 8.02 µM
- TGI [45]: 15.9 µM
- GI50 [56]: 23.2 µM
- TGI [56]: > 50 µM
- GI50 [46]: 10.2 µM
- TGI [46]: 27.3 µM
- GI50 [47]: 6.53 µM
- TGI [47]: 13.2 µM
- GI50 [48]: 7.5 µM
- TGI [48]: 14.1 µM
- GI50 [49]: 3.07 µM
- TGI [49]: 10.2 µM
- GI50 [50]: 9.16 µM
- TGI [50]: 18.9 µM
